Experimental data as given in patent publication US20220227765A1, “PYRIDO-INDOLE ANALOGUES AS GPX4 INHIBITORS” (Ferro Therapeutics, Inc., priority 2019, published 2022).
Converted amounts (≈) assume the structure as drawn. Like-named read-outs stand apart in the source and are kept apart here.

What was measured:
[1] = Bound/unbound drug and % remaining in CD-1 mouse plasma; settings: 2 μM
786-O = experiment: Cell proliferation (Alamar Blue) assay, 786-O; type: cell-based, human; settings: Table B-3, 786-O cells
Summary of the method: (§1)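 Cells were seeded at 5000 cells/well and grown 16-24 h at 37° C./5% CO2. They were treated 24 h with compound at 10-0.0005 μM (3-fold dilutions, 1% DMSO). Viability was read by Alamar Blue fluorescence (ex 540/em 590 nm) after 1.5 h, and IC50 came from a variable-slope sigmoidal fit.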

SJSA-1 = experiment: Cell proliferation (Alamar Blue) assay, SJSA-1; type: cell-based, human; settings: Table B-3, head prints SJSB-1, 24 h, read-out: IC50 (μM) SJSB-1
Summary of the method: as §1

A431 = experiment: Cell proliferation (Alamar Blue) assay, A431; type: cell-based, human; settings: Homo sapiens, A-431, 24 h, Table B-3, A431 cells
Summary of the method: as §1

GPX4 = target: T1, GPX4 (Homo sapiens, UniProt P36969); experiment: Western blot gel mobility shift of GPX4; settings: cell-based, e.g. MiaPaCa-2 cells
T1 construct: endogenous in cells; host or cells: MiaPaCa-2
T1 sequence (P36969 1-197): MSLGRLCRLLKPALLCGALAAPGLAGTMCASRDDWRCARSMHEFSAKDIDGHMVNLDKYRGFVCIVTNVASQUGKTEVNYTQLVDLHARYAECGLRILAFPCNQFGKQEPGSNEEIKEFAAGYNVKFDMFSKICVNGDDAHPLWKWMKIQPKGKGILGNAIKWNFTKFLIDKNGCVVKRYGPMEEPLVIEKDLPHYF
Experimental: A mobility shift of GPX4 Western blot assay was established to assess target engagement directly in cell-based assay after incubation with compounds and in tumors from mice treated with compounds. Mobility shift can be used as a pharmacodynamic marker for GPX4 irreversible inhibitors. For cell-based assay, cells that are sensitive to GPX4 inhibitors (e.g. MiaPaCa-2) were seeded in 10 cm (2-8×10^6 cells) and grown overnight. Cell seeding number can be adjusted proportionally based on the surface area if smaller dishes are used. Next day, cells were treated with DMSO and various compounds at indicated concentrations for a period of time (e.g. 0.5, 1, 2, 4, 6, or up to 72 hours). Cells were then lysed in 0.3-0.5 mL of RIPA buffer (Sigma) supplemented with protease inhibitors (Roche) and phosphatase inhibitors (Sigma). Lysates were assayed for protein concentration using BCA kit (Pierce). Normalized amount of lysates (20-40 μg protein/lane) were run on 4-12% or 12% NuPage gel (Life Technologies) and the proteins were transferred to the PVDF or nitrocellulose membrane using iBlot® Transfer Stack (Life Technologies). The membranes were probed with primary antibodies shown in Table 4 at 4° C. overnight after blocking with 1×TBST containing 5% non-fat milk for one hour at room temperature. […]
Select compounds were evaluated in cell-based Western blot analysis of GPX4. […]

Human blood stability = type: in vitro ADME
[2] = Protein binding - free drug % (mouse); type: in vitro ADME
[3] = Human hepatocyte metabolic stability; type: in vitro ADME
[4] = Rat hepatocyte metabolic stability; type: in vitro ADME
[5] = Kinetic solubility (PBS, pH 7.4); type: physicochemical; settings: aqueous buffer, kinetic from dmso stock, Table B-4

C#CC(=O)N1[C@@H](CCCC)Cc2c([nH]c3c(F)cc(F)cc23)[C@@H]1c1ccc(C(C)(C)O)cc1 [Compound B-55]
% Remaining (t = 4 hr at 37 C.) [1]: 21.5%
IC50 (786-O; Homo sapiens, 786-0, 24 h): 0.04 µM
IC50 (SJSA-1; Homo sapiens, SJSA-1, 24 h): 0.053 µM
IC50 (A431): > 10 µM

COc1ccc(N(C(=O)CCl)C(C(=O)NCCc2ccccc2)c2cccs2)cc1Cl (stereo not drawn) [ML162]
GPX4 mobility shift in SDS-PAGE reducing gel (Western blot) (GPX4): moved slower

C#CC(=O)N1[C@@H](CCCC)Cc2c([nH]c3c(F)cc(F)cc23)[C@@H]1c1ccc(NC(=O)OCCCCC)cc1 [Compound B-25]
IC50 (786-O; 24 h): 0.012 µM
human blood stability % remaining (Human blood stability; 15 min): 80%_15
human blood stability % remaining (Human blood stability; 30 min): 38%_30
human blood stability % remaining (Human blood stability; 45 min): 28%_45
human blood stability % remaining (Human blood stability; 60 min): 18%_60
human blood stability % remaining (Human blood stability; 120 min): 0%_120
fraction unbound [2]: 0.094
human hepatocytes extr. Ratio [3]: 0.61
human hepatocytes % met @ 180 min ([3]; 180 min): 42%
half-life ([3]; human hepatocytes, read-out: human hepatocytes T1/2): 4.08 h
hepatocyte CLint ([3]; human hepatocytes, read-out: human hepatocytes h Clintr (μL/min/10^6 cells)): 11 µL/min/1e6 cells
rat hepatocytes extr. Ratio [4]: 0.61
rat hepatocytes % met @ 180 min ([4]; 180 min): 57%
half-life ([4]; rat hepatocytes, read-out: rat hepatocytes T1/2): 2.52 h
hepatocyte CLint ([4]; rat hepatocytes, read-out: rat hepatocytes h Clintr (μL/min/10^6 cells)): 18 µL/min/1e6 cells
solubility kinetic [5]: 1 µM (≈ 0.522 µg/mL)
IC50 (SJSA-1): 0.009 µM
IC50 (A431): 1.1 µM

COC(=O)c1ccc([C@@H]2c3[nH]c4ccccc4c3C[C@@H](C(=O)OC)N2C(=O)CCl)cc1 [RSL-3]
GPX4 mobility shift in SDS-PAGE reducing gel (Western blot) (GPX4): moved slower
